# According to patent publication US4317768A, “Dihydropyridine derivatives as stabilizers for vinyl chloride polymers” (priority 1977, dated 1982):
# Assays:
# [1] = Comparison with 1,4-butanediol-β-aminocrotonate and methyl-β-aminocrotonate, rigid co-polymer, 185° C.; settings: 0.5 part
# Procedure: (a) Comparison with 1,4-butanediol-β-aminocrotonate and with methyl-β-aminocrotonate.
# The following rigid co-polymer was prepared:
# The sheets were heated in a ventilated oven at 185° C. and the following results were obtained: […]
# [2] = Photostabilizing power, tetrahydrofuran solution of plates exposed to the sun, French Pharmacopeia
# Procedure: (§1) The photostabilizing power of the compounds of the invention was studied by exposing to the sun polyvinyl chloride plates which had been stabilized either by a dihydropyridine of the invention or by 2-phenyl-indole, or again by 2-(3'-methoxy-4'-hydroxy)-indole. This last product is an extremely valuable thermostabilizer for thermoplastic resins and is described in British Pat. No. 1,489,685.
# (§2) The resin given hereunder was prepared by mixing on cylinders at 160° C.:
# (§3) The plates of stabilized polyvinyl chloride, together with a plate which had not been stabilized, were stood in the sun under the same conditions and at the same time. Their colour was measured after 6 hours and 12 hours of exposure.
# (§4) The coloration of the plates was determined according to two methods:
# On a solution of these plates in tetrahydrofuran, the coloration of th solution being measured according to the French Pharmacopeia (IXth edition, II-338).
# [3] = Photostabilizing power, PVC plates exposed to the sun, GARDNER scale
# Procedure: as §1, §2, §3, §4
# On the plates themselves, following the GARDNER scale, as in the section on thermostability,
# The sign + means that the coloration lies between the lower unit and the upper half-unit. Thus, 3+ means that the coloration lies between 3 and 3.5. Similarly, the sign - means that the coloration lies between the lower half-unit and the upper unit.
# [4] = Static thermostability (GARDNER method), rigid PVC sheets, 185° C., equimolecular quantities; settings: 1.55×10^-3 mol
# Procedure: (§5) This study was carried out according to the GARDNER method, described in British Pat. No. 1,489,685.
# (§6) The reference substance was 2-phenyl-indole, a well-known and widely used stabilizer.
# (§7) The stabilizer (dihydropyridine or 2-phenyl-indole) and the other usual ingredients were mixed with powdered vinyl resins and the mixtures were calendered at a temperature of 160° C. to give rigid sheets.
# (§8) The sheets were then heated in a thermostated oven (185° C. or 210° C.) for different intervals of time until incipient carbonization.
# (§9) The coloration of the samples was compared to a standard scale of coloration, known as the GARDNER scale and was expressed in terms of the reference figures of the GARDNER scale.
# (§10) This study was carried out with the following resin:
# (§11) Polyvinyl chloride resin
# (§12) SL 2016 is a solution of zinc-2-ethyl-hexanoate in a mixture of hydrocarbons boiling between 158° C. and 184° C.
# Finally, a trail was performed at 185° C., with resins containing equimolecular quantities of the dihydropyridines or of 2-phenyl-indole, namely 1.55×10^-3 mol. In this case too, the samples were removed from the oven every 6 minutes over a period of 24 minutes and then every 3 minutes until the 42nd minute (or until carbonization).
# [5] = Static thermostability (GARDNER method), rigid PVC sheets, 185° C., 0.3 part stabilizer
# Procedure: as §5, §6, §7, §8, §9, §10, §11, §12
# A second trial was performed at a temperature of 185° C., with a resin containing 0.3 part of stabilizer, the samples being removed from the oven every 6 minutes over a period of 24 minutes, then every 3 minutes until the 42nd minute (or until carbonization).
# [6] = Static thermostability (GARDNER method), rigid PVC sheets, 210° C., 0.3 part stabilizer
# Procedure: as §5, §6, §7, §8, §9, §10, §11, §12
# The first trial was carried out at 210° C. with a resin containing 0.3 part by weight of stabilizer, the sheets being removed from the oven every three minutes over a period of 21 minutes.
# [7] = Comparison with stabilizer G1, rigid co-polymer, 0.5 part, 185° C.
# Source text: (b) Comparison with stabilizer G1
# Stabilizer G1 is a mixture of 1,4-butanediol-β-aminocrotonate and of β-aminocrotonate of alcohols containing from 16 to 18 carbon atoms.
# [8] = Photostabilizing power, sheets exposed to the sun, co-polymer (a)
# Procedure: The sheets were exposed to the sun and their colorations were also determined according to the GARDNER method.
compound,measurement,setting,value
"CC(N)=CC(=O)OCCCCOC(=O)C=C(C)N [1,4-butanediol-β-aminocrotonate, reference compound]","coloration, GARDNER scale",[1]; 0 min,1
same,"coloration, GARDNER scale",[1]; 2 min,1
same,"coloration, GARDNER scale",[1]; 4 min,4
same,"coloration, GARDNER scale",[1]; 6 min,10
same,"coloration, GARDNER scale",[1]; 8 min,13
same,"coloration, GARDNER scale",[1]; 10 min,15
same,"coloration, GARDNER scale",[1]; 12 min,18
"COc1cc(-c2cc3ccccc3[nH]2)ccc1O [2-(3'-Methoxy-4'-hydroxy-phenyl)-indole, reference compound]",Coloration of the plates FRENCH PHARMACOPEIA,[2]; exposure to sun 6h,B4 to JB4
same,Coloration of the plates FRENCH PHARMACOPEIA,[2]; exposure to sun 12h,B3 to JB3
same,Coloration of the plates GARDNER,[3]; exposure to sun 0,1
same,Coloration of the plates GARDNER,[3]; exposure to sun 6h,4
same,Coloration of the plates GARDNER,[3]; exposure to sun 12h,8
"CC1=C(C(=O)OCc2ccccc2Cl)CC(C(=O)OCc2ccccc2Cl)=C(C)N1 [Compound 5, 2,6-Dimethyl-3,5-di-(2'-carbochloro-benzyloxy)-1,4-dihydropyridine]","coloration, GARDNER scale",[4]; 0 min,1
same,"coloration, GARDNER scale",[4]; 6 min,1
same,"coloration, GARDNER scale",[4]; 12 min,1
same,"coloration, GARDNER scale",[4]; 18 min,5
same,"coloration, GARDNER scale",[4]; 24 min,10
same,"coloration, GARDNER scale",[4]; 27 min,11
same,"coloration, GARDNER scale",[4]; 30 min,13
same,"coloration, GARDNER scale",[4]; 33 min,14
same,"coloration, GARDNER scale",[4]; 36 min,15
same,"coloration, GARDNER scale",[4]; 39 min,Burnt
same,"coloration, GARDNER scale",[5]; 0 min,1
same,"coloration, GARDNER scale",[5]; 6 min,1
same,"coloration, GARDNER scale",[5]; 12 min,2
same,"coloration, GARDNER scale",[5]; 18 min,9
same,"coloration, GARDNER scale",[5]; 24 min,11
same,"coloration, GARDNER scale",[5]; 27 min,11
same,"coloration, GARDNER scale",[5]; 30 min,13
same,"coloration, GARDNER scale",[5]; 33 min,14
same,"coloration, GARDNER scale",[5]; 36 min,14
same,"coloration, GARDNER scale",[5]; 39 min,Burnt
same,"coloration, GARDNER scale",[6]; 0 min,1
same,"coloration of the resins, in words",[6]; 0 to 3 minutes,considerably less
same,"coloration, GARDNER scale",[6]; 3 min,1
same,"coloration, GARDNER scale",[6]; 6 min,2
same,"coloration, GARDNER scale",[6]; 9 min,3
same,"coloration, GARDNER scale",[6]; 12 min,6
same,"coloration, GARDNER scale",[6]; 15 min,10.5
same,"coloration, GARDNER scale",[6]; 18 min,Burnt
"CC1=C(C(=O)OCc2ccccc2C)CC(C(=O)OCc2ccccc2C)=C(C)N1 [Compound 6, 2,6-Dimethyl-3,5-di-(2'-carbomethyl-benzyloxy)-1,4-dihydropyridine]","coloration, GARDNER scale",[4]; 0 min,1
same,"coloration, GARDNER scale",[4]; 6 min,1
same,"coloration, GARDNER scale",[4]; 12 min,2
same,"coloration, GARDNER scale",[4]; 18 min,4
same,"coloration, GARDNER scale",[4]; 24 min,10
same,"coloration, GARDNER scale",[4]; 27 min,13
same,"coloration, GARDNER scale",[4]; 30 min,B.
same,"coloration, GARDNER scale",[5]; 0 min,1
same,"coloration, GARDNER scale",[5]; 6 min,1
same,"coloration, GARDNER scale",[5]; 12 min,2
same,"coloration, GARDNER scale",[5]; 18 min,9
same,"coloration, GARDNER scale",[5]; 24 min,11
same,"coloration, GARDNER scale",[5]; 27 min,11
same,"coloration, GARDNER scale",[5]; 30 min,13
same,"coloration, GARDNER scale",[5]; 33 min,14
same,"coloration, GARDNER scale",[5]; 36 min,Burnt
same,"coloration, GARDNER scale",[6]; 0 min,1
same,"coloration, GARDNER scale",[6]; 3 min,1
same,"coloration, GARDNER scale",[6]; 6 min,1.5
same,"coloration, GARDNER scale",[6]; 9 min,3
same,"coloration, GARDNER scale",[6]; 12 min,4
same,"coloration, GARDNER scale",[6]; 15 min,7
same,"coloration, GARDNER scale",[6]; 18 min,Burnt
CCCCOCCOC(=O)C1=C(C)NC(C)=C(C(=O)OCCOCCCC)C1 [Compound 27],"coloration, GARDNER scale",[7]; 0 min,1
same,"coloration, GARDNER scale",[7]; 2 min,1
same,"coloration, GARDNER scale",[7]; 4 min,4
same,"coloration, GARDNER scale",[7]; 6 min,7
same,"coloration, GARDNER scale",[7]; 8 min,12.5
same,"coloration, GARDNER scale",[7]; 10 min,17
same,Colour in GARDNER degrees,[8]; After 24 hours,2 GARDNER degrees
same,Colour in GARDNER degrees,[8]; Time 0,1 GARDNER degrees
same,"coloration, GARDNER scale",[6]; 0 min,1
same,"coloration, GARDNER scale",[6]; 3 min,1
same,"coloration, GARDNER scale",[6]; 6 min,1
same,"coloration, GARDNER scale",[6]; 9 min,2
same,"coloration, GARDNER scale",[6]; 12 min,5
same,"coloration, GARDNER scale",[6]; 15 min,14
same,"coloration, GARDNER scale",[6]; 18 min,Burnt
"COC(=O)C1=C(C)NC(C)=C(C(=O)OC)C1C [Compound 29, 2,4,6-Trimethyl-3,5-dicarbomethoxy-1,4-dihydropyridine]",Coloration of the plates FRENCH PHARMACOPEIA,[2]; exposure to sun 0,JV6
same,Coloration of the plates FRENCH PHARMACOPEIA,[2]; exposure to sun 6h,JV5
same,Coloration of the plates FRENCH PHARMACOPEIA,[2]; exposure to sun 12h,JV4
same,Coloration of the plates GARDNER,[3]; exposure to sun 6h,3
same,Coloration of the plates GARDNER,[3]; exposure to sun 12h,5
same,"coloration, GARDNER scale",[6]; 0 min,1
same,"coloration, GARDNER scale",[6]; 3 min,2
same,"coloration, GARDNER scale",[6]; 6 min,3
same,"coloration, GARDNER scale",[6]; 9 min,6
same,"coloration, GARDNER scale",[6]; 12 min,7
same,"coloration, GARDNER scale",[6]; 15 min,10
same,"coloration, GARDNER scale",[6]; 18 min,10.5
same,"coloration, GARDNER scale",[6]; 21 min,Burnt
"COC(=O)/C=C(/C)N [Methyl-β-aminocrotonate, methyl-β-aminocrotonate, reference compound]","coloration, GARDNER scale",[1]; 0 min,1
same,"coloration, GARDNER scale",[1]; 2 min,1
same,"coloration, GARDNER scale",[1]; 4 min,5
same,"coloration, GARDNER scale",[1]; 6 min,12
same,"coloration, GARDNER scale",[1]; 8 min,14
same,"coloration, GARDNER scale",[1]; 10 min,17
same,"coloration, GARDNER scale",[1]; 12 min,18
